Data as given in article PMC11079024, “Identification of a family of species-selective complex I inhibitors as potential anthelmintics” (Nature Communications, 2024).
Several values for one entry are separate records, joined by “and”; a condition that tells them apart may be missing. Equal values may be shown once. Read-outs that look alike come from different tables or passages of the source.

Biological target: C. elegans (N2) complex I (NADH:ubiquinone oxidoreductase) (Caenorhabditis elegans, UniProt P24887+Q93873+Q94360)
Sequence (Q94360 17-199): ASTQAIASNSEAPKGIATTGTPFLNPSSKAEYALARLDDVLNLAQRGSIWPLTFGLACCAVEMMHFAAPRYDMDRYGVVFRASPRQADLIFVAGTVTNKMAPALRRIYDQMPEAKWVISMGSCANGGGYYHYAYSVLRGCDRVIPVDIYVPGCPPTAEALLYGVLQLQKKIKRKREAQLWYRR
Sequence (P24887 whole entry): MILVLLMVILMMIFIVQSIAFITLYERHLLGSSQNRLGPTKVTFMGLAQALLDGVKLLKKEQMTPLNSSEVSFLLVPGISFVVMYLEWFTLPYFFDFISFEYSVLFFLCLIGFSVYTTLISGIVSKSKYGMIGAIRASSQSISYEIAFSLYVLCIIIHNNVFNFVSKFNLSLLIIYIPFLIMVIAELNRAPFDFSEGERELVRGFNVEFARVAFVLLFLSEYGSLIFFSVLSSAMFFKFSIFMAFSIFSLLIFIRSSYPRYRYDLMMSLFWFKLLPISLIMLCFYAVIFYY
Sequence (Q93873 31-482): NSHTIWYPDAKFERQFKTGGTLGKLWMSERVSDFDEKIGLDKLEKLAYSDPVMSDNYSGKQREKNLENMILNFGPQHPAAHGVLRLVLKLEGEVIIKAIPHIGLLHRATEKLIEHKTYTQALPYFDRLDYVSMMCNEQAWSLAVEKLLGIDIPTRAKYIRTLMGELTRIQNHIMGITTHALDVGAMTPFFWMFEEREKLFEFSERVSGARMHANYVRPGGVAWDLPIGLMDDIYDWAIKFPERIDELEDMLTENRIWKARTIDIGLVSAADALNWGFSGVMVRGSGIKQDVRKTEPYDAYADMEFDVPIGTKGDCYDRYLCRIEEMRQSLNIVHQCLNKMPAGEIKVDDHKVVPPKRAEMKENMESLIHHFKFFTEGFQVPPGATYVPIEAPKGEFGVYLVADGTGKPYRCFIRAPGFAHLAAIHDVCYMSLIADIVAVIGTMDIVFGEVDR
Experiment: biochemical
Type: biochemical
Outline: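 Mitochondria from liquid-cultured adults were freeze-thawed thrice before the 15-min DCIP-coupled NADH oxidation read.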

With `COC(=O)Nc1nc2ccc(Sc3ccccc3)cc2[nH]1` [fenbendazole, reference compound] the remaining activity at 0.125 µM (0.125 µM, wild-type C. elegans mitochondria, mean of replicates, read-out: percent (%) in vitro complex I activity relative to solvent control) was 103%, the “percent (%) in vitro complex I activity relative to solvent control” value (0.125 µM, wild-type C. elegans mitochondria, single replicate) was 106.082% and 99.397% and the remaining activity at 0.125 µM (0.125 µM, wild-type C. elegans mitochondria, single replicate, read-out: percent (%) in vitro complex I activity relative to solvent control) was 102%. For the same compound, the remaining activity at 0.313 µM (0.313 µM, wild-type C. elegans mitochondria, mean of replicates, read-out: percent (%) in vitro complex I activity relative to solvent control) was 101%, the “percent (%) in vitro complex I activity relative to solvent control” value (0.313 µM, wild-type C. elegans mitochondria, single replicate) was 105.067% and 102.773% and the remaining activity at 0.313 µM (0.313 µM, wild-type C. elegans mitochondria, single replicate, read-out: percent (%) in vitro complex I activity relative to solvent control) was 101%. The remaining activity at 0.625 µM (0.625 µM, wild-type C. elegans mitochondria, mean of replicates, read-out: percent (%) in vitro complex I activity relative to solvent control) was 101%, the “percent (%) in vitro complex I activity relative to solvent control” value (0.625 µM, wild-type C. elegans mitochondria, single replicate) was 108.826% and 84.037% and 107.828% and 101.922% and the remaining activity at 1.5 µM (1.5 µM, wild-type C. elegans mitochondria, mean of replicates, read-out: percent (%) in vitro complex I activity relative to solvent control) was 101%. The “percent (%) in vitro complex I activity relative to solvent control” value (1.5 µM, wild-type C. elegans mitochondria, single replicate) was 107.818% and 102.911% and 106.921% and 84.834%, the remaining activity at 3 µM (3 µM, wild-type C. elegans mitochondria, mean of replicates, read-out: percent (%) in vitro complex I activity relative to solvent control) was 108% and the “percent (%) in vitro complex I activity relative to solvent control” value (3 µM, wild-type C. elegans mitochondria, single replicate) was 108.394% and 103.450%. The remaining activity at 3 µM (3 µM, wild-type C. elegans mitochondria, single replicate, read-out: percent (%) in vitro complex I activity relative to solvent control) was 111%, the remaining activity at 15 µM (15 µM, wild-type C. elegans mitochondria, mean of replicates, read-out: percent (%) in vitro complex I activity relative to solvent control) was 103% and the “percent (%) in vitro complex I activity relative to solvent control” value (15 µM, wild-type C. elegans mitochondria, single replicate) was 105.414% and 100.145%. The remaining activity at 15 µM (15 µM, wild-type C. elegans mitochondria, single replicate, read-out: percent (%) in vitro complex I activity relative to solvent control) was 104%, the remaining activity at 37.5 µM (37.5 µM, wild-type C. elegans mitochondria, mean of replicates, read-out: percent (%) in vitro complex I activity relative to solvent control) was 106% and the “percent (%) in vitro complex I activity relative to solvent control” value (37.5 µM, wild-type C. elegans mitochondria, single replicate) was 108.185% and 102.298%. The remaining activity at 37.5 µM (37.5 µM, wild-type C. elegans mitochondria, single replicate, read-out: percent (%) in vitro complex I activity relative to solvent control) was 112%, the remaining activity at 75 µM (75 µM, wild-type C. elegans mitochondria, mean of replicates, read-out: percent (%) in vitro complex I activity relative to solvent control) was 99.7% and the “percent (%) in vitro complex I activity relative to solvent control” value (75 µM, wild-type C. elegans mitochondria, single replicate) was 105.576% and 98.309%. For the same compound, the remaining activity at 75 µM (75 µM, wild-type C. elegans mitochondria, single replicate, read-out: percent (%) in vitro complex I activity relative to solvent control) was 98.1%, the remaining activity at 0.0001 µM (dose 0.0001 µM, wild-type C. elegans, mean of replicates, read-out: in vitro complex I activity relative to solvent control, Mean) was 92.7% and the “in vitro complex I activity relative to solvent control, individual replicate” value (dose 0.0001 µM, wild-type C. elegans, single replicate) was 89.632% and 90.262%. The remaining activity at 0.0001 µM (dose 0.0001 µM, wild-type C. elegans, single replicate, read-out: in vitro complex I activity relative to solvent control, individual replicate) was 94.2%, the remaining activity at 0.0005 µM (dose 0.0005 µM, wild-type C. elegans, mean of replicates, read-out: in vitro complex I activity relative to solvent control, Mean) was 102% and the “in vitro complex I activity relative to solvent control, individual replicate” value (dose 0.0005 µM, wild-type C. elegans, single replicate) was 109.063% and 93.803% and 100.567%. For the same compound, the remaining activity at 0.0005 µM (dose 0.0005 µM, wild-type C. elegans, single replicate, read-out: in vitro complex I activity relative to solvent control, individual replicate) was 104%, the remaining activity at 0.001 µM (dose 0.001 µM, wild-type C. elegans, mean of replicates, read-out: in vitro complex I activity relative to solvent control, Mean) was 107% and the “in vitro complex I activity relative to solvent control, individual replicate” value (dose 0.001 µM, wild-type C. elegans, single replicate) was 112.362% and 106.090% and 103.456%. For the same compound, the remaining activity at 0.001 µM (dose 0.001 µM, wild-type C. elegans, single replicate, read-out: in vitro complex I activity relative to solvent control, individual replicate) was 107%, the remaining activity at 0.0025 µM (dose 0.0025 µM, wild-type C. elegans, mean of replicates, read-out: in vitro complex I activity relative to solvent control, Mean) was 106% and the “in vitro complex I activity relative to solvent control, individual replicate” value (dose 0.0025 µM, wild-type C. elegans, single replicate) was 111.626% and 103.191% and 101.180%. The remaining activity at 0.0025 µM (dose 0.0025 µM, wild-type C. elegans, single replicate, read-out: in vitro complex I activity relative to solvent control, individual replicate) was 107%, the remaining activity at 0.005 µM (dose 0.005 µM, wild-type C. elegans, mean of replicates, read-out: in vitro complex I activity relative to solvent control, Mean) was 106% and the “in vitro complex I activity relative to solvent control, individual replicate” value (dose 0.005 µM, wild-type C. elegans, single replicate) was 110.787% and 104.169% and 105.146%. The remaining activity at 0.005 µM (dose 0.005 µM, wild-type C. elegans, single replicate, read-out: in vitro complex I activity relative to solvent control, individual replicate) was 104%, the remaining activity at 0.013 µM (dose 0.013 µM, wild-type C. elegans, mean of replicates, read-out: in vitro complex I activity relative to solvent control, Mean) was 105% and the “in vitro complex I activity relative to solvent control, individual replicate” value (dose 0.013 µM, wild-type C. elegans, single replicate) was 109.484% and 102.444% and 103.368%. For the same compound, the remaining activity at 0.013 µM (dose 0.013 µM, wild-type C. elegans, single replicate, read-out: in vitro complex I activity relative to solvent control, individual replicate) was 105%, the remaining activity at 0.025 µM (dose 0.025 µM, wild-type C. elegans, mean of replicates, read-out: in vitro complex I activity relative to solvent control, Mean) was 108% and the “in vitro complex I activity relative to solvent control, individual replicate” value (dose 0.025 µM, wild-type C. elegans, single replicate) was 112.068% and 112.677% and 102.223%. The remaining activity at 0.025 µM (dose 0.025 µM, wild-type C. elegans, single replicate, read-out: in vitro complex I activity relative to solvent control, individual replicate) was 106%, the remaining activity at 0.063 µM (dose 0.063 µM, wild-type C. elegans, mean of replicates, read-out: in vitro complex I activity relative to solvent control, Mean) was 102% and the “in vitro complex I activity relative to solvent control, individual replicate” value (dose 0.063 µM, wild-type C. elegans, single replicate) was 106.376% and 104.996% and 99.618%. The remaining activity at 0.063 µM (dose 0.063 µM, wild-type C. elegans, single replicate, read-out: in vitro complex I activity relative to solvent control, individual replicate) was 98%, the remaining activity at 0.125 µM (dose 0.125 µM, wild-type C. elegans, mean of replicates, read-out: in vitro complex I activity relative to solvent control, Mean) was 103% and the “in vitro complex I activity relative to solvent control, individual replicate” value (dose 0.125 µM, wild-type C. elegans, single replicate) was 106.082% and 99.397%. For the same compound, the remaining activity at 0.125 µM (dose 0.125 µM, wild-type C. elegans, single replicate, read-out: in vitro complex I activity relative to solvent control, individual replicate) was 104%, the remaining activity at 0.313 µM (dose 0.313 µM, wild-type C. elegans, mean of replicates, read-out: in vitro complex I activity relative to solvent control, Mean) was 101% and the “in vitro complex I activity relative to solvent control, individual replicate” value (dose 0.313 µM, wild-type C. elegans, single replicate) was 105.067% and 102.773%. The remaining activity at 0.313 µM (dose 0.313 µM, wild-type C. elegans, single replicate, read-out: in vitro complex I activity relative to solvent control, individual replicate) was 96.6%, the remaining activity at 0.625 µM (dose 0.625 µM, wild-type C. elegans, mean of replicates, read-out: in vitro complex I activity relative to solvent control, Mean) was 101% and the “in vitro complex I activity relative to solvent control, individual replicate” value (dose 0.625 µM, wild-type C. elegans, single replicate) was 84.037% and 107.828% and 101.922% and 108.826%. The remaining activity at 1.5 µM (dose 1.5 µM, wild-type C. elegans, mean of replicates, read-out: in vitro complex I activity relative to solvent control, Mean) was 101%, the “in vitro complex I activity relative to solvent control, individual replicate” value (dose 1.5 µM, wild-type C. elegans, single replicate) was 102.911% and 106.921% and 84.834% and 107.818% and the remaining activity at 3 µM (dose 3 µM, wild-type C. elegans, mean of replicates, read-out: in vitro complex I activity relative to solvent control, Mean) was 108%. For the same compound, the “in vitro complex I activity relative to solvent control, individual replicate” value (dose 3 µM, wild-type C. elegans, single replicate) was 108.394% and 103.450%, the remaining activity at 3 µM (dose 3 µM, wild-type C. elegans, single replicate, read-out: in vitro complex I activity relative to solvent control, individual replicate) was 107% and the remaining activity at 15 µM (dose 15 µM, wild-type C. elegans, mean of replicates, read-out: in vitro complex I activity relative to solvent control, Mean) was 103%. The “in vitro complex I activity relative to solvent control, individual replicate” value (dose 15 µM, wild-type C. elegans, single replicate) was 105.414% and 100.145%, the remaining activity at 15 µM (dose 15 µM, wild-type C. elegans, single replicate, read-out: in vitro complex I activity relative to solvent control, individual replicate) was 101% and the remaining activity at 37.5 µM (dose 37.5 µM, wild-type C. elegans, mean of replicates, read-out: in vitro complex I activity relative to solvent control, Mean) was 106%. For the same compound, the “in vitro complex I activity relative to solvent control, individual replicate” value (dose 37.5 µM, wild-type C. elegans, single replicate) was 108.185% and 102.298%, the remaining activity at 37.5 µM (dose 37.5 µM, wild-type C. elegans, single replicate, read-out: in vitro complex I activity relative to solvent control, individual replicate) was 103% and the remaining activity at 75 µM (dose 75 µM, wild-type C. elegans, mean of replicates, read-out: in vitro complex I activity relative to solvent control, Mean) was 99.7%. For the same compound, the “in vitro complex I activity relative to solvent control, individual replicate” value (dose 75 µM, wild-type C. elegans, single replicate) was 105.576% and 98.309% and the remaining activity at 75 µM (dose 75 µM, wild-type C. elegans, single replicate, read-out: in vitro complex I activity relative to solvent control, individual replicate) was 96.8%.
